Columns and labels:
mouse AhR = assay: Competitive binding by velocity sedimentation on sucrose density gradients; settings: Hepa cytosol, 2 h, room temperature
Description: Mouse hepatoma cells, Hepa1c1c7 (Hepa), and BP^rCl cells were maintained in modified Eagle's medium (Sigma) supplemented with 10% heat-inactivated fetal bovine serum, sodium pyruvate, L-glutamine, sodium bicarbonate, and Gentamicin (MEM+), at 37° C. in a humid atmosphere with 5% CO2. BP^rCl cells are a derivative of Hepa1c1c7 cells that lack ARNT protein expression and function (Probst et al., Mol. Pharmacol. 44:511-518 (1993), which is hereby incorporated by reference in its entirety). Upon reaching 90% confluency, cells were harvested and homogenized in HEDG buffer (25 mM HEPES, 1.5 mM Na2EDTA, 1 mM dithiothreitol, 10% (v/v) glycerol, pH 7.6) containing protease inhibitors (Roche Applied Science complete mini cocktail tablet, Indianapolis, Ind.). Both Hepa and BP^rC1 cytosols were prepared by centrifugation of the homogenate at 100,000 g for 45 min.
(§1) Competitive binding of EGCG was analyzed by velocity sedimentation on sucrose gradients in a vertical tube rotor (Tsui et al., Can. J. Physiol. Pharmacol 59:927-931 (1981); Jensen et al., Toxicol. Sci. 64:41-56 (2001), which are hereby incorporated by reference in their entirety). Hepa cytosol (100 μl of 2.5 mg/ml) or BP^rCl cytosol was incubated for two hours at room temperature with either 3 nM ^3H-TCDD, 0.5 nM ^3H-TCDD, or 5 nM ^3H-BNF, in the presence of DMSO, 150-fold excess TCDF, 1 μM 3M4NF, or EGCG. Cytosols were washed with charcoal-dextran (1 mg charcoal/mg protein) in HEDG, and applied to a 10-30% (w/v) sucrose gradient in Beckman Quick-Seal centrifuge tubes (Beckman, Palo Alto, Calif.). [Methyl-^14C]-BSA was used as an internal sedimentation marker. The gradients were centrifuged for 2 h at 372,000×g in a Beckman VTI-80 rotor. Fractions were collected from the top at a rate of 1 ml/min, 0.2 ml/fraction. For competitive binding assays, fractions were assayed for radioactivity with ScintiVerse (Fisher Scientific, Fair Lawn, N.J.). […] For AhR and hsp90 density analysis, protein contained within an aliquot (200 of each fraction was separated by SDS-PAGE (7.5% acrylamide resolving gel) and transferred to PVDF membranes. Membranes were probed with antibodies recognizing AhR (Biomol) or hsp90 (Stressgen, Victoria, BC Canada). A crude estimate of the sedimentation coefficient for the EGCG shifted AhR complex was calculated by the method of Martin and Ames (Martin et al., J. Biol. Chem. 236:1372-1379 (1961), which is hereby incorporated by reference in its entirety) relative to the ^14C-BSA (4.4S) standard.

AhR [1] = assay: Immunocytochemistry of AhR subcellular localization in Hepa cells; format: cell-based, mouse; settings: 1 h, EGCG 200 μM or TCDD 150 pM
Description: Hepa cells were plated onto four-well chamber slides (Becton Dickinson, Bedford, Mass.) at a density of 2.0×10^4 and incubated overnight. Cells were treated with either vehicle (DMSO), TCDD (150 pM), EGCG alone (200 μM), or EGCG in the presence of TCDD (150 pM) for 1 h. Cells were fixed with 3.7% formalin at room temperature for 10 minutes, followed by a four minute incubation in anhydrous methanol at 4° C. All antibodies were filtered through a 0.45 micron filter before staining Cells were blocked for one hour in phosphate buffered saline containing 4% BSA, incubated with anti-AhR at a 1:2000 dilution for two hours at room temperature, followed by a one hour incubation with 1:1000 anti-rabbit Alexa-Fluor conjugated secondary antibody (Molecular Probes, Eugene Oreg.). Nuclei were stained with DAPI (0.5 μg/ml) (Molecular Probes) for three minutes at room temperature. Slides were mounted with 50% glycerol and coverslipped. AhR staining and nuclear staining were visualized using a Nikon Eclipse TS110 fluorescent microscope (40× magnification). Fluorescent images were captured using SPOT advanced software.

AhR [2] = assay: AhR protein levels by western blotting in Hepa cells; format: cell-based, mouse; settings: over 12 hours, EGCG 200 μM or TCDD 150 pM
Description: Hepa cells were plated onto 6-well plates at a density of 5×10^5 cells/well and incubated overnight at 37° C. […] Cells were lysed (0.2% Triton, 5 mM EDTA in PBS) and total protein quantified using the Coomassie Plus Protein Assay Reagent (Pierce, Rockford, Ill.). Protein (30 μg) was separated by SDS-PAGE (7.5% acrylamide resolving gel) and transferred to PVDF membrane (Millipore, Bedford, Mass.). Membranes were probed with antibodies recognizing CYP1A1 (Xenotech, Lenexa, Kans.), AhR (Biomol, Plymouth Meeting, Pa.) and actin (Sigma). The secondary IgG antibodies were coupled to horseradish peroxidase (Jackson Immuno Research, West Grove, Pa.). Both primary and secondary antibodies were used at a dilution of 1:5000 in TBST (50 mM Tris, 300 mM NaCl, 0.5% Tween 20, pH 7.5) containing 5% milk. Proteins were visualized by chemiluminescence (KPL, Gaithersburg, Md.).

hsp90 = assay: Sucrose density gradient sedimentation of hsp90 in Hepa cytosol; format: biochemical, mouse; settings: 2 h, 200 μM EGCG or 10 nM TCDD
Description: as §1, with “Cytosols were washed with charcoal-dextran (1 mg charcoal/mg protein) in HEDG, and applied to a 10-30% (w/v) sucrose gradient in Beckman Quick-Seal centrifuge tubes (Beckman, Palo Alto, Calif.). [Methyl-^14C]-BSA was used as an internal sedimentation marker. The gradients were centrifuged for 2 h at 372,000×g in a Beckman VTI-80 rotor. Fractions were collected from the top at a rate of 1 ml/min, 0.2 ml/fraction.” left out

O=c1cc(-c2cccc([N+](=O)[O-])c2)oc2ccccc12 [3′-nitroflavone, reference compound]
competition with 3H-BNF for binding to the AhR (mouse AhR; 5 nM 3H-BNF): very efficiently competed with BNF binding

COc1cc(-c2cc(=O)c3ccccc3o2)ccc1[N+](=O)[O-] [3M4NF, 3′-methoxy-4′ nitroflavone, reference compound]
competition with 3H-TCDD for specific binding to the AhR (9S peak) (mouse AhR; 3 nM 3H-TCDD): inhibited the formation of this ^3H-TCDD peak

Clc1cc2c(cc1Cl)Oc1cc(Cl)c(Cl)cc1O2 [TCDD, 2,3,7,8-tetrachlorodibenzo-p-dioxin, reference compound]
subcellular localization of the AhR, treatment alone (AhR [1]): redistribution of the AhR from the cytosol to the nucleus
AhR protein levels, treatment alone (AhR [2]): decline rapidly
effect on the sedimentation pattern of hsp90 (hsp90): did not appear to influence this sedimentation pattern
